According to US20260250290A1 (BRISTOL-MYERS SQUIBB COMPANY, priority 2023, published 2026):
Where a name gives a salt, the structure may show the parent alone.

Target: T1, full length SGK1 (Homo sapiens, UniProt O00141)
T1 construct: 125 μM full length SGK1 (Life Technologies Part #PR7358A); purchased Life Technologies PR7358A
T1 sequence (O00141 1-431): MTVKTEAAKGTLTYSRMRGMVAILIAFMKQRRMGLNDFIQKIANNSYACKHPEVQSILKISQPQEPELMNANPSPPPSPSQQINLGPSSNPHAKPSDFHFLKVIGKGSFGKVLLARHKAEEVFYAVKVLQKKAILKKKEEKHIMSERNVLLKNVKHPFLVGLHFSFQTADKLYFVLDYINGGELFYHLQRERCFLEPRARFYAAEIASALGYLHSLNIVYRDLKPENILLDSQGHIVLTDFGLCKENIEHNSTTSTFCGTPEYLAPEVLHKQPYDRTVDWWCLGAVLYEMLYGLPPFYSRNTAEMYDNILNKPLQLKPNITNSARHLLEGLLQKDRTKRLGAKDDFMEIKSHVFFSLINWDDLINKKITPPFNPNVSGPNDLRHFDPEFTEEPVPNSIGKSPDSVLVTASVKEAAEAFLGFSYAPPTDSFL
Experiment: SGK1 inhibition Assay A (Caliper LabChip electrophoretic separation of fluorescent peptide substrate and phosphorylated product)
Assay type: biochemical
Conditions: Assay A; 20 μM ATP, 40 min incubation; read-out: SGK1 IC50

Row | IC50 | Molecule
1 | 3 nM | N#Cc1ccc(-c2cc(N3CCC[C@@H](NC(=O)c4ccc(C(F)F)s4)C3)c3c(N)ncnn23)cn1 [Example 487, (R)-N-(1-(4-amino-7-(6-cyanopyridin-3-yl)pyrrolo[2,1-f][1,2,4]triazin-5-yl)piperidin-3-yl)-5-(difluoromethyl)thiophenc-2-carboxamide]
2 | 7 nM | Nc1ncnn2c(-c3ccnc(C(F)(F)F)c3)cc(N3CCC[C@@H](NC(=O)c4ccc(Cl)s4)C3)c12 [Example 220, (R)-N-(1-(4-amino-7-(2-(trifluoromethyl)pyridin-4-yl)pyrrolo[2,1-f][1,2,4]triazin-5-yl)piperidin-3-yl)-5-chlorothiophene-2-carboxamide]
3 | 15 nM | CS(=O)(=O)c1ccc(-c2cc(N3CCC[C@@H](NC(=O)c4cccc(C5CC5)c4)C3)c3c(N)ncnn23)cc1 [Example 82, (R)-N-(1-(4-amino-7-(4-(methylsulfonyl)phenyl)pyrrolo[2,1-f][1,2,4]triazin-5-yl)piperidin-3-yl)-3-cyclopropylbenzamide]
4 | 31 nM | CC(C)n1cc(C(=O)N[C@@H]2CCCN(c3cc(-c4ccc(S(C)(=O)=O)cc4)n4ncnc(N)c34)C2)cn1 [Example 77, (R)-N-(1-(4-amino-7-(4-(methylsulfonyl)phenyl)pyrrolo[2,1-f][1,2,4]triazin-5-yl)piperidin-3-yl)-1-isopropyl-1H-pyrazole-4-carboxamide, TFA]
5 | 800 nM | Nc1ncnn2c(-c3ccc(CN4CCOCC4)cc3)cc(N3CCC[C@@H](NC(=O)c4ccc(Cl)s4)C3)c12 [Example 221]
6 | 6 nM | COc1ccc2[nH]c(C(=O)N[C@@H]3CCCN(c4cc(C5=CCN(C(C)=O)C5)n5ncnc(N)c45)C3)cc2c1 [Example 491, (R)-N-(1-(7-(1-acetyl-2,5-dihydro-1H-pyrrol-3-yl)-4-aminopyrrolo[2,1-f][1,2,4]triazin-5-yl)piperidin-3-yl)-5-methoxy-1H-indole-2-carboxamide]
7 | 679 nM | CC(=O)N1CC=C(c2cc(N3CCC[C@@H](NC(=O)c4cccc(NC5CN(C)C5)n4)C3)c3c(N)ncnn23)C1 [Example 766, (R)-N-(1-(7-(1-acetyl-2,5-dihydro-1H-pyrrol-3-yl)-4-aminopyrrolo[2,1-f][1,2,4]triazin-5-yl)piperidin-3-yl)-6-((1-methylazetidin-3-yl)amino)picolinamide]
8 | 53 nM | COC(=O)N1CC=C(c2cc(N3CCC[C@@H](NC(=O)c4n[nH]c5ccc(N)cc45)C3)c3c(N)ncnn23)C1 [Example 689, methyl (R)-3-(4-amino-5-(3-(5-amino-1H-indazole-3-carboxamido)piperidin-1-yl)pyrrolo[2,1-f][1,2,4]triazin-7-yl)-2,5-dihydro-1H-pyrrole-1-carboxylate]
9 | 7 nM | COC(=O)N1CC=C(c2cc(N3CCC[C@@H](NC(=O)c4ccc(Cl)s4)C3)c3c(N)ncnn23)C1 [Example 138, methyl (R)-3-(4-amino-5-(3-(5-chlorothiophene-2-carboxamido)piperidin-1-yl)pyrrolo[2,1-f][1,2,4]triazin-7-yl)-2,5-dihydro-1H-pyrrole-1-carboxylate, TFA]
10 | 32 nM | Cc1nc(C)c(C(=O)N[C@@H]2CCCN(c3cc(-c4ccnc(C#N)c4)n4ncnc(N)c34)C2)s1 [Example 513, (R)-N-(1-(4-amino-7-(2-cyanopyridin-4-yl)pyrrolo[2,1-f][1,2,4]triazin-5-yl)piperidin-3-yl)-2.4-dimethylthiazole-5-carboxamide]
11 | 4 nM | Nc1ncnn2c(-c3ccnc(C(F)F)c3)cc(N3CCC[C@@H](NC(=O)c4ccc(Cl)s4)C3)c12 [Example 483, (R)-N-(1-(4-amino-7-(2-(difluoromethyl)pyridin-4-yl)pyrrolo[2,1-f][1,2,4]triazin-5-yl)piperidin-3-yl)-5-chlorothiophene-2-carboxamide]
12 | 1 nM | Nc1ncnn2c(C3=CCN(C(=O)c4cnco4)C3)cc(N3CCC[C@@H](NC(=O)c4ccc(Cl)s4)C3)c12 [Example 890, (R)-N-(1-(4-amino-7-(1-(oxazole-5-carbony1)-2,5-dihydro-1H-pyrrol-3-y1)pyrrolo[2,1-f][1,2,4]triazin-5-yl)piperidin-3-y1)-5-chlorothiophene-2-carboxamide]

The next lines start with the molecule.

Row | Molecule | IC50
13 | CC(=O)N1CC=C(c2cc(N3CCC[C@@H](NC(=O)c4sc(C(F)F)cc4C4CCN(C)C4)C3)c3c(N)ncnn23)C1 (stereo partly drawn) [Example 398, N—((R)-1-(7-(1-acetyl-2,5-dihydro-1H-pyrrol-3-yl)-4-aminopyrrolo[2,1-f][1,2,4]triazin-5-yl)piperidin-3-yl)-5-(difluoromethyl)-3-(1-methylpyrrolidin-3-yl)thiophene-2-carboxamide] | 246 nM
14 | CC(=O)N1CC=C(c2cc(N3CCC[C@@H](NC(=O)c4sc(Cl)cc4OC4CCN(CC(C)(C)O)CC4)C3)c3c(N)ncnn23)C1 [Example 618, (R)—N-(1-(7-(1-acetyl-2,5-dihydro-1H-pyrrol-3-yl)-4-aminopyrrolo[2,1-f][1,2,4]triazin-5-yl)piperidin-3-yl)-5-chloro-3-((1-(2-hydroxy-2-methylpropyl)piperidin-4-yl)oxy)thiophene-2-carboxamide] | 9 nM
15 | CC(=O)N1CC=C(c2cc(N3CCC[C@@H](NC(=O)c4sc(-c5ccnc(F)c5)cc4OCCN(C)C)C3)c3c(N)ncnn23)C1 [Example 556, (R)-N-(1-(7-(1-acetyl-2,5-dihydro-1H-pyrrol-3-yl)-4-aminopyrrolo[2,1-f][1,2,4]triazin-5-yl)piperidin-3-yl)-3-(2-(dimethylamino)ethoxy)-5-(2-fluoropyridin-4-yl)thiophene-2-carboxamide] | 6 nM
16 | (R)-N-(1-(4-amino-7-(1-ethyl-1H-pyrazol-5-yl)pyrrolo[2,1-f][1,2,4]triazin-5-yl)piperidin-3-yl)-6-(4-methylpiperazin-1-yl)picolinamide [Example 790] | 30 nM
17 | CN(C)CCOc1cc(Cl)sc1C(=O)N[C@@H]1CCCN(c2cc(-c3ccnc(C(F)F)c3)n3ncnc(N)c23)C1 [Example 340, (R)—N-(1-(4-amino-7-(2-(difluoromethyl)pyridin-4-yl)pyrrolo[2,1-f][1,2,4]triazin-5-yl)piperidin-3-yl)-5-chloro-3-(2-(dimethylamino)ethoxy)thiophene-2-carboxamide] | 3 nM
18 | CN(C)CCOc1cc(C(F)F)sc1C(=O)N[C@@H]1CCCN(c2cc(-c3ccc(C(N)=O)c(F)c3)n3ncnc(N)c23)C1 [Example 302, (R)—N-(1-(4-amino-7-(4-carbamoyl-3-fluorophenyl)pyrrolo[2,1-f][1,2,4]triazin-5-yl)piperidin-3-yl)-5-(difluoromethyl)-3-(2-(dimethylamino)ethoxy)thiophene-2-carboxamide] | 4 nM
19 | CC(=O)N1CC=C(c2cc(N3CCC[C@@H](NC(=O)c4sc5ccc(C#N)cc5c4OC4CCNCC4)C3)c3c(N)ncnn23)C1 [Example 677, (R)—N-(1-(7-(1-acetyl-2,5-dihydro-1H-pyrrol-3-yl)-4-aminopyrrolo[2,1-f][1,2,4]triazin-5-yl)piperidin-3-yl)-5-cyano-3-(piperidin-4-yloxy)benzo[b]thiophene-2-carboxamide] | 35 nM
20 | CN(C)CCOc1cc(Cl)sc1C(=O)N[C@@H]1CCCN(c2cc(C3=CCN(C(=O)C4CCC4)CC3)n3ncnc(N)c23)C1 [Example 183, (R)-N-(1-(4-amino-7-(1-(cyclobutanecarbonyl)-1,2,3,6-tetrahydropyridin-4-yl)pyrrolo[2,1-f][1,2,4]triazin-5-yl)piperidin-3-yl)-5-chloro-3-(2-(dimethylamino)ethoxy) thiophene-2-carboxamide, 2 TFA] | 42 nM
21 | CC(=O)N1CC=C(c2cc(N3CCC[C@@H](NC(=O)Oc4ccccc4)C3)c3c(N)ncnn23)C1 [Example 873, phenyl (R)-(1-(7-(1-acetyl-2,5-dihydro-1H-pyrrol-3-yl)-4-aminopyrrolo[2,1-f][1,2,4]triazin-5-yl)piperidin-3-yl)carbamate] | 936 nM
22 | NCCOc1cc(C(F)F)sc1C(=O)N[C@@H]1CCCN(c2cc(-c3ccnc(C(F)F)c3)n3ncnc(N)c23)C1 [Example 326, (R)-N-(1-(4-amino-7-(2-(difluoromethyl)pyridin-4-yl)pyrrolo[2,1-f][1,2,4]triazin-5-yl)piperidin-3-yl)-3-(2-aminoethoxy)-5-(difluoromethyl)thiophene-2-carboxamide] | 4 nM
23 | COC(=O)N1CC=C(c2cc(N3CCC[C@@H](NC(=O)c4sc(C(F)F)cc4OC4CCNCC4)C3)c3c(N)ncnn23)C1 [Example 348, methyl (R)-3-(4-amino-5-(3-(5-(difluoromethyl)-3-(piperidin-4-yloxy)thiophene-2-carboxamido)piperidin-1-yl)pyrrolo[2,1-f][1,2,4]triazin-7-yl)-2,5-dihydro-1H-pyrrole-1-carboxylate] | 6 nM
24 | CC(=O)N1CC=C(c2cc(N3CCC[C@@H](NC(=O)c4cc(N5CCOCC5)cs4)C3)c3c(N)ncnn23)C1 [Example 272, (R)—N-(1-(7-(1-acetyl-2,5-dihydro-1H-pyrrol-3-yl)-4-aminopyrrolo[2,1-f][1,2,4]triazin-5-yl)piperidin-3-yl)-4-morpholinothiophene-2-carboxamide] | 28 nM
25 | CCn1cc(-c2cc(N3CCC[C@@H](NC(=O)c4cccc(N5CCN(C)CC5)n4)C3)c3c(N)ncnn23)ccc1=O [Example 799, (R)-N-(1-(4-amino-7-(1-ethyl-6-oxo-1,6-dihydropyridin-3-yl)pyrrolo[2,1-f][1,2,4]triazin-5-yl)piperidin-3-yl)-6-(4-methylpiperazine-1-yl)picolinamide] | 3 nM
